We go through 13 molecules from patent US11890288B2, “Sulfonamide or sulfinamide compound having effect of inducing BRD4 protein degradation and pharmaceutical use thereof” (MITSUBISHI TANABE PHARMA CORPORATION, priority 2020, dated 2024).

Broadly, the DC50 is the concentration giving 50% degradation. Broadly, the pIC50 is the negative decadic logarithm of the IC50, by convention in mol/L. High values mean a small IC50, low ones a large IC50.

In one assay the target is BRD4 protein (Homo sapiens (Human), UniProt O60885). In words: BRD4 protein degradation inducing action in LNCaP cells (immunofluorescence, 6 hr). The following applies: anti-BRD4 fluorescence intensity. Type of assay: cell-based. The protocol: The degradation inducing action of the compound of the present invention on BRD4 proteins in cancer cells was evaluated in vitro using human prostate cancer LNCaP cells. LNCaP cells were suspended in 10% FBS/RPMI1640, seeded in a 96 well Cell carrier plate (Perkin Elmer) and cultured at 5% CO2, 37° C. overnight. A test compound dissolved in DMSO was diluted with 10% FBS/RPMI1640 and added and the cells were further cultured for 6 hr. After culturing, the cells were immobilized with 4% para-formaldehyde/PBS and further subjected to a permeation treatment with 0.25% Triton X-100/PBS. Thereafter, the cells were blocked with 10% BSA/PBS, Anti-BRD4 (Sigma-Aldrich) solution was added and the cells were incubated at 4° C. overnight. Furthermore, Goat anti-Rabbit IgG(H+L) Cross-Adsorbed Secondary Antibody, Alexa Fluor 546 (Thermo Fisher Scientific) solution, 0.5 μg/mL Hoechst 33342 (Sigma-Aldrich), and 14 μM Acti-Stain 555 Fluorescent Phalloidin (Cytoskeleton) were added. After incubation for 1 hr, BRD4 protein amount was measured by Operetta (Perkin Elmer) as fluorescence intensity (excitation: 560 nm, emission: 572 nm). The BRD4 protein degradation inducing activity of the compound of the present invention in LNCaP cells is shown in DC50 value in Table 3. The DC50 value is a concentration of the compound showing 50% fluorescence intensity when the fluorescence intensity thereof under compound untreated condition is 100%. It was calculated from the straight line connecting the fluorescence intensity at two points enclosing the 50% fluorescence intensity and the compound concentration.

Assay [1] relates to human prostate cancer LNCaP cells. In words: Cytotoxic action on LNCaP cells (WST-8, 96 hr). Conditions: 96 hr culture. It is filed as cell-based. The protocol:
The cytotoxic action of the compound of the present invention against human cancer cells was evaluated in vitro. In this experiment, (+)-JQ1 (Nature volume 468, pages 1067-1073 (23 Dec. 2010)) known to have an inhibitory activity on the binding of BRD4 protein and a ligand therefor was used as a positive control drug. Respective cells were suspended in 10% FBS/RPMI1640, seeded in a 96 well plate and cultured at 5% CO2, 37° C. overnight. A test compound dissolved in DMSO was diluted with 10% FBS/RPMI1640 and added and the cells were further cultured for 96 hr. After culturing, the viable cell number was measured using a cell number measurement WST-8 kit (Kishida Chemical Co., Ltd.). As a control, the measurement was performed under conditions free of the test compound. The cytotoxic activity of the compound of the present invention against human prostate cancer LNCaP cells is shown in IC50 value in Table 1. The IC50 value is a concentration of the compound showing 50% cell survival rate when the cell survival rate thereof under compound untreated condition is 100%. It was calculated from the straight line connecting the cell survival rate at two points enclosing the 50% cell survival rate and the compound concentration. In addition, the cytotoxic activity against respective cancer cells of human acute myeloid leukemia MV-4-11 cell, human chronic myeloid leukemia K562 cell, human multiple myeloma MM.1S cell, human diffuse large B-cell lymphoma SU-DHL-6 cell, human T-cell leukemia Jurkat cells, human Burkitt lymphoma Raji cell, human castration-resistant prostate cancer PC-3 cell, human AR-V7 positive castration-resistant prostate cancer 22Rv1 cell, human ovarian cancer A2780 cell, human cisplatin-resistant ovarian cancer SK-OV-03 cell, human bladder cancer 5637 cell, human breast cancer ZR-75-1 cell, human triple negative breast cancer MDA-MB-231 cell, human uterus cervix cancer HeLa cell, human uterine sarcoma MES-SA cell, human stomach cancer SNU-16 cell, human non-small cell lung cancer NCI-H2126 cell, human EGFRT790M mutation-positive non-small cell lung cancer NCI-H1975 cell, human small cell lung cancer NCI-H82 cell, human large cell lung cancer NCI-H460 cell, human colon cancer HCT116 cell, human glioma U-87 MG cell, human pancreatic cancer BxPC-3 cell, human liver cancer HLF cell, human bile duct cancer HuCCT1 cell, human renal cell cancer 786-O cell, and human fibrosarcoma HT1080 cell is shown in IC50 value in Table 2.
A general note: Tetrazolium dyes change colour on reduction, which living cells bring about.

pIC50: −log10 of the molar value.

`COC(=O)C[C@@H]1N=C(c2ccc(-c3cnc(C(=O)NCc4ccc(S(=O)(=O)Nc5ccc(C)c6c(C#N)c[nH]c56)cc4)cn3)cc2)c2c(sc(C)c2C)-n2c(C)nnc21` [Example 65, methyl [(6S)-4-(4-{5-[({4-[(3-cyano-4-methyl-1H-indol-7-yl)sulfamoyl]phenyl}methyl)carbamoyl]pyrazin-2-yl}phenyl)-2,3,9-trimethyl-6H-thieno[3,2-f][1,2,4]triazolo[4,3-a][1,4]diazepin-6-yl]acetate] had a DC50 on BRD4 protein of 0.036 nM. Moreover, the pIC50 in assay [1] was 10.15.

Take `COC(=O)C[C@@H]1N=C(c2ccc(-c3ccc(C(=O)N[C@H](C)c4ccc(S(=O)(=O)Nc5ccc(C)c6c(C#N)c[nH]c56)cc4)c(F)c3)cc2)c2c(sc(C)c2C)-n2c(C)nnc21` [Example 69, methyl [(6S)-4-(4′-{[(1R)-1-{4-[(3-cyano-4-methyl-1H-indol-7-yl)sulfamoyl]phenyl}ethyl]carbamoyl}-3′-fluoro[1,1′-biphenyl]-4-yl)-2,3,9-trimethyl-6H-thieno[3,2-f][1,2,4]triazolo[4,3-a][1,4]diazepin-6-yl]acetate]: the DC50 at BRD4 protein is 0.056 nM. Also, in assay [1], the pIC50 was 9.92.

On BRD4 protein, `COC(=O)C[C@@H]1N=C(c2ccc(-c3ccc(C(=O)N[C@H](C)c4ccc(S(=O)(=O)Nc5ccc(C)c6c(C#N)c[nH]c56)cc4)c(Cl)c3)cc2)c2c(sc(C)c2C)-n2c(C)nnc21` [Example 70, methyl [(6S)-4-(3′-chloro-4′-{[(1R)-1-{4-[(3-cyano-4-methyl-1H-indol-7-yl)sulfamoyl]phenyl}ethyl]carbamoyl}[1,1′-biphenyl]-4-yl)-2,3,9-trimethyl-6H-thieno[3,2-f][1,2,4]triazolo[4,3-a][1,4]diazepin-6-yl]acetate] displayed a DC50 of 0.13 nM. This molecule also had a pIC50 in assay [1] of 9.64.

At BRD4 protein, `Cc1sc2c(c1C)C(c1ccc(-c3cc(Cl)c(C(=O)NCc4ccc(S(=O)(=O)Nc5ccc(C)c6c(C#N)c[nH]c56)cc4)cc3F)cc1)=N[C@@H](C)c1nnc(C)n1-2` [Example 71, 5-chloro-N-({4-[(3-cyano-4-methyl-1H-indol-7-yl)sulfamoyl]phenyl}methyl)-2-fluoro-4′-[(6S)-2,3,6,9-tetramethyl-6H-thieno[3,2-f][1,2,4]triazolo[4,3-a][1,4]diazepin-4-yl][1,1′-biphenyl]-4-carboxamide] gave a DC50 of 0.32 nM. Also, the pIC50 in assay [1] was 9.21.

The molecule `Cc1sc2c(c1C)C(c1ccc(-c3cc(F)c(C(=O)NCc4ccc(S(=O)(=O)Nc5ccc(C)c6c(C#N)c[nH]c56)cc4)c(Cl)c3)cc1)=N[C@@H](C)c1nnc(C)n1-2` [Example 72, 3-chloro-N-({4-[(3-cyano-4-methyl-1H-indol-7-yl)sulfamoyl]phenyl}methyl)-5-fluoro-4′-[(6S)-2,3,6,9-tetramethyl-6H-thieno[3,2-f][1,2,4]triazolo[4,3-a][1,4]diazepin-4-yl][1,1′-biphenyl]-4-carboxamide] returned a DC50 on BRD4 protein of 65 nM. Moreover, the pIC50 in assay [1] was 8.26.

As to `Cc1sc2c(c1C)C(c1ccc(-c3ccc(C(=O)NCc4ccc(S(=O)(=O)Nc5ccc(C)c6c(C#N)c[nH]c56)cc4)cc3)cc1)=N[C@@H](CC#N)c1nnc(C)n1-2` [Example 73, N-({4-[(3-cyano-4-methyl-1H-indol-7-yl)sulfamoyl]phenyl}methyl)-4′-[(6S)-6-(cyanomethyl)-2,3,9-trimethyl-6H-thieno[3,2-f][1,2,4]triazolo[4,3-a][1,4]diazepin-4-yl][1,1-biphenyl]-4-carboxamide], the DC50 at BRD4 protein was found to be 0.75 nM. The molecule also had a pIC50 in assay [1] of 8.77.

On BRD4 protein, `COC(=O)C[C@@H]1N=C(c2ccc(-c3ccc(C(=O)NCc4ccc(S(=O)(=O)Nc5ccc(C)c6c(C#N)c[nH]c56)cc4)cc3C)cc2)c2c(sc(C)c2C)-n2c(C)nnc21` [Example 75, methyl [(6S)-4-{4′-[({4-[(3-cyano-4-methyl-1H-indol-7-yl)sulfamoyl]phenyl}methyl)carbamoyl]-2′-methyl[1,1′-biphenyl]-4-yl}-2,3,9-trimethyl-6H-thieno[3,2-f][1,2,4]triazolo[4,3-a][1,4]diazepin-6-yl]acetate] registered a DC50 of 0.32 nM. Further, in assay [1], the negative-log IC50 (pIC50) was 9.33.

On BRD4 protein, `COC(=O)C[C@@H]1N=C(c2ccc(-c3cnc(C(=O)NCc4ccc(S(=O)(=O)Nc5ccc(C)c6c(C#N)c[nH]c56)cc4)c(F)c3)cc2)c2c(sc(C)c2C)-n2c(C)nnc21` [Example 77, methyl [(6S)-4-(4-{6-[({4-[(3-cyano-4-methyl-1H-indol-7-yl)sulfamoyl]phenyl}methyl)carbamoyl]-5-fluoropyridin-3-yl}phenyl)-2,3,9-trimethyl-6H-thieno[3,2-f][1,2,4]triazolo[4,3-a][1,4]diazepin-6-yl]acetate] registered a DC50 of 0.048 nM. Also, in assay [1], the pIC50 is 9.80.

Turning to `COC(=O)C[C@@H]1N=C(c2ccc(-c3cc(F)c(C(=O)NCc4ccc(S(=O)(=O)Nc5ccc(C)c6c(C#N)c[nH]c56)cc4)cc3F)cc2)c2c(sc(C)c2C)-n2c(C)nnc21` [Example 82, methyl [(6S)-4-{4′-[({4-[(3-cyano-4-methyl-1H-indol-7-yl)sulfamoyl]phenyl}methyl)carbamoyl]-2′,5′-difluoro[1,1′-biphenyl]-4-yl}-2,3,9-trimethyl-6H-thieno[3,2-f][1,2,4]triazolo[4,3-a][1,4]diazepin-6-yl]acetate], it took 0.25 nM to reach half-maximal degradation at BRD4 protein (DC50). Further, the pIC50 in assay [1] was 9.57.

With `COC(=O)C[C@@H]1N=C(c2ccc(-c3cc(C)c(C(=O)NCc4ccc(S(=O)(=O)Nc5ccc(C)c6c(C#N)c[nH]c56)cc4)cc3F)cc2)c2c(sc(C)c2C)-n2c(C)nnc21` [Example 83, methyl [(6S)-4-{4′-[({4-[(3-cyano-4-methyl-1H-indol-7-yl)sulfamoyl]phenyl}methyl)carbamoyl]-2′-fluoro-5′-methyl[1,1′-biphenyl]-4-yl}-2,3,9-trimethyl-6H-thieno[3,2-f][1,2,4]triazolo[4,3-a][1,4]diazepin-6-yl]acetate], the DC50 at BRD4 protein worked out at 0.25 nM. The molecule further gave a negative logarithm of the IC50 (pIC50) in assay [1] of 9.48.

In turn, `COC(=O)C[C@@H]1N=C(c2ccc(-c3ccc(C(=O)N[C@H](C)c4ccc(S(=O)(=O)Nc5ccc(C)c6c(C#N)c[nH]c56)cc4)cc3Cl)cc2)c2c(sc(C)c2C)-n2c(C)nnc21` [Example 84, methyl [(6S)-4-(2′-chloro-4′-{[(1R)-1-{4-[(3-cyano-4-methyl-1H-indol-7-yl)sulfamoyl]phenyl}ethyl]carbamoyl}[1,1′-biphenyl]-4-yl)-2,3,9-trimethyl-6H-thieno[3,2-f][1,2,4]triazolo[4,3-a][1,4]diazepin-6-yl]acetate] had a DC50 at BRD4 protein of 0.23 nM. Further, the pIC50 in assay [1] was 9.24.

Consider `COC(=O)C[C@@H]1N=C(c2ccc(-c3ccc(C(=O)N[C@H](C)c4ccc(S(=O)(=O)Nc5ccc(C)c6c(C#N)c[nH]c56)cc4)cc3F)cc2)c2c(sc(C)c2C)-n2c(C)nnc21` [Example 85, methyl [(6S)-4-(4′-{[(1R)-1-{4-[(3-cyano-4-methyl-1H-indol-7-yl)sulfamoyl]phenyl}ethyl]carbamoyl}-2′-fluoro[1,1′-biphenyl]-4-yl)-2,3,9-trimethyl-6H-thieno[3,2-f][1,2,4]triazolo[4,3-a][1,4]diazepin-6-yl]acetate], for which, at BRD4 protein, half-maximal degradation (DC50) was put at 0.074 nM. The pIC50 in assay [1] was 9.59.

With `COC(=O)C[C@@H]1N=C(c2ccc(-c3ccc(C(=O)N[C@H](C)c4ccc(S(=O)(=O)Nc5ccc(C)c6c(C#N)c[nH]c56)cc4)c(C)c3)cc2)c2c(sc(C)c2C)-n2c(C)nnc21` [Example 86, methyl [(6S)-4-(4′-{[(1R)-1-{4-[(3-cyano-4-methyl-1H-indol-7-yl)sulfamoyl]phenyl}ethyl]carbamoyl}-3′-methyl[1,1′-biphenyl]-4-yl)-2,3,9-trimethyl-6H-thieno[3,2-f][1,2,4]triazolo[4,3-a][1,4]diazepin-6-yl]acetate], the DC50 at BRD4 protein was 0.059 nM. In assay [1], this molecule showed a pIC50 of 9.46.
